Source: patent publication US11000033B2, “Ketone or oxime compound, and herbicide” (NISSAN CHEMICAL CORPORATION, priority 2014, dated 2021)

What was measured:
Type in all cases: in vivo
[1] = system: Echinochloa oryzacola Vasing.; experiment: Test Example 1: herbicidal activity, application before weed generation in submerged conditions (symbol A); conditions: application herbicide amount 320 g/ha
In short: (§1)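 In a flooded pot test with alluvial soil, the emulsion-formulated compound was diluted with water to a predetermined amount and applied to the floodwater immediately on the sowing day. Pots were held in a greenhouse at 25–30 °C for 3 weeks before each weed was rated.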

Scirpus juncoides = experiment: Test Example 1: herbicidal activity, application before weed generation in submerged conditions (symbol B); conditions: application herbicide amount 320 g/ha
In short: as §1

Monochoria vaginalis = experiment: Test Example 2: herbicidal activity, application during weed generation in submerged conditions (symbol C); conditions: Table 23; application herbicide amount 320 g/ha; grade 0-5 by criteria of Test Example 1
In short: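 Compound was applied as a water-diluted emulsion into the standing water of flooded pots (4 cm) once co-sown weeds reached one to two leaves. Greenhouse temperature was 25° C. to 30° C., soil was alluvial, and each species was rated visually after 3 weeks.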

Leptochloa chinensis = experiment: Test Example 3: herbicidal effect by foliage application, Wagner pot (symbol D); conditions: application herbicide amount 320 g/ha
In short: (§2)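 In a shallow-flooded alluvial soil system held at 25–30 °C, plants including rice grew for 14 days and were then sprayed over the foliage with emulsion diluted to a fixed herbicide amount. Visual rating followed at 3 weeks.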

Cyperus difformis = experiment: Test Example 3: herbicidal effect by foliage application, Wagner pot (symbol E); conditions: application herbicide amount 320 g/ha
In short: as §2

Digitaria ciliaris [2] = experiment: Test Example 4: herbicidal effect by soil treatment (symbol F); conditions: application herbicide amount 320 g/ha
In short: (§3)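 Seeds were sown in sterilized diluvial soil, covered with about 1.5 cm of soil, and the soil surface was sprayed with a water-diluted emulsion of the compound at a predetermined rate. Plants grew in a greenhouse at 25° C. to 30° C.; effects were scored visually 3 weeks after application.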

Setaria viridis [3] = experiment: Test Example 4: herbicidal effect by soil treatment (symbol G); conditions: application herbicide amount 320 g/ha
In short: as §3

[4] = system: Echinochloa crus-galli var. crus-galli; experiment: Test Example 4: herbicidal effect by soil treatment (symbol H); conditions: application herbicide amount 320 g/ha
In short: as §3

Veronica persica = experiment: Test Example 4: herbicidal effect by soil treatment (symbol R); conditions: application herbicide amount 320 g/ha
In short: as §3

beet = experiment: Test Example 4: effect on crop by soil treatment (symbol f); conditions: application herbicide amount 320 g/ha
In short: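 Diluvial soil (sterilized) in boxes; seeds placed spot-wise alongside weed species; ~1.5 cm covering soil. Greenhouse, 25–30° C.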

Digitaria ciliaris [5] = experiment: Test Example 5: herbicidal effect by foliage application, plastic box (symbol F); conditions: 320 g/ha, 3 weeks after application
In short: (§4)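 Herbicide, formulated as an emulsion and diluted in water, is sprayed onto the aerial parts of 14-day seedlings. These were grown at 25° C. to 30° C. in sterilized diluvial soil; effects are graded after 3 weeks.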

Setaria viridis [6] = experiment: Test Example 5: herbicidal effect by foliage application, plastic box (symbol G); conditions: 320 g/ha, 3 weeks after application
In short: as §4

Avena fatua = experiment: Test Example 5: herbicidal effect by foliage application, plastic box (symbol I); conditions: 320 g/ha, 3 weeks after application
In short: as §4

Stellaria media = experiment: Test Example 5: herbicidal effect by foliage application, plastic box (symbol P); conditions: 320 g/ha, 3 weeks after application
In short: as §4

Compound | Herbicidal effect grade, A: Echinochloa oryzacola Vasing. [1] | Herbicidal effect grade, B: Scirpus juncoides (Scirpus juncoides) | Herbicidal effect grade, C: Monochoria vaginalis (Monochoria vaginalis) | herbicidal effect on D (Leptochloa chinensis), grade 0-5 (Leptochloa chinensis) | herbicidal effect on E, grade 0-5 (Cyperus difformis) | F: Digitaria ciliaris, herbicidal effect grade (Digitaria ciliaris [2]) | G: Setaria viridis, herbicidal effect grade (Setaria viridis [3]) | H: Echinochloa crus-galli var. crus-galli, herbicidal effect grade [4] | R: Veronica persica, herbicidal effect grade (Veronica persica) | f: beet, effect on crop grade (beet) | F: Digitaria ciliaris, herbicidal effect (criteria of Test Example 1) (Digitaria ciliaris [5]) | G: Setaria viridis, herbicidal effect (criteria of Test Example 1) (Setaria viridis [6]) | I: Avena fatua, herbicidal effect (criteria of Test Example 1) (Avena fatua) | P: Stellaria media, herbicidal effect (criteria of Test Example 1) (Stellaria media)
CON=C(C)CC1CC(O)=C(c2c(C)cc(-n3cccn3)cc2C)C1=O (stereo not shown) [6-073] | 4 (Herbicidal ratio of 70% or higher and lower than 90%) | 1 (Herbicidal ratio of 5% or higher and lower than 20%) | 1 (Herbicidal ratio of 5% or higher and lower than 20%) | 5 (Herbicidal ratio of 90% or more (almost completely withered)) | 5 (Herbicidal ratio of 90% or more (almost completely withered)) | 5 (Herbicidal ratio of 90% or more (almost completely withered)) | 5 (Herbicidal ratio of 90% or more (almost completely withered)) | 5 (Herbicidal ratio of 90% or more (almost completely withered)) | 0 (Herbicidal ratio of 5% or lower (almost no effect)) | 0 (Herbicidal ratio of 5% or lower (almost no effect)) | 5 (Herbicidal ratio of 90% or more (almost completely withered)) | 5 (Herbicidal ratio of 90% or more (almost completely withered)) | 5 (Herbicidal ratio of 90% or more (almost completely withered)) | 2 (Herbicidal ratio of 20% or higher and lower than 40%)
CON=C(C)CC1CC(O)=C(c2c(C)cc(-n3cncn3)cc2C)C1=O (stereo not shown) [6-074] | 1 (Herbicidal ratio of 5% or higher and lower than 20%) | 0 (Herbicidal ratio of 5% or lower (almost no effect)) | 0 (Herbicidal ratio of 5% or lower (almost no effect)) | 5 (Herbicidal ratio of 90% or more (almost completely withered)) | 2 (Herbicidal ratio of 20% or higher and lower than 40%) | 0 (Herbicidal ratio of 5% or lower (almost no effect)) | 2 (Herbicidal ratio of 20% or higher and lower than 40%) | 0 (Herbicidal ratio of 5% or lower (almost no effect)) | 0 (Herbicidal ratio of 5% or lower (almost no effect)) | 0 (Herbicidal ratio of 5% or lower (almost no effect)) | 0 (Herbicidal ratio of 5% or lower (almost no effect)) | 4 (Herbicidal ratio of 70% or higher and lower than 90%) | 1 (Herbicidal ratio of 5% or higher and lower than 20%) | 0 (Herbicidal ratio of 5% or lower (almost no effect))
CON=C(C)CC1CC(O)=C(c2c(C)cc(C)cc2SC)C1=O (stereo not shown) [6-075] | 4 (Herbicidal ratio of 70% or higher and lower than 90%) | 1 (Herbicidal ratio of 5% or higher and lower than 20%) | 1 (Herbicidal ratio of 5% or higher and lower than 20%) | 3 (Herbicidal ratio of 40% or higher and lower than 70%) | 3 (Herbicidal ratio of 40% or higher and lower than 70%) | 0 (Herbicidal ratio of 5% or lower (almost no effect)) | 0 (Herbicidal ratio of 5% or lower (almost no effect)) | 0 (Herbicidal ratio of 5% or lower (almost no effect)) | 0 (Herbicidal ratio of 5% or lower (almost no effect)) | 0 (Herbicidal ratio of 5% or lower (almost no effect)) | 1 (Herbicidal ratio of 5% or higher and lower than 20%) | 0 (Herbicidal ratio of 5% or lower (almost no effect)) | 5 (Herbicidal ratio of 90% or more (almost completely withered)) | 0 (Herbicidal ratio of 5% or lower (almost no effect))
CON=C(C)CC1CC(O)=C(c2c(C)cc(Br)cc2OC)C1=O (stereo not shown) [6-076, 2-(4-bromo-2-methoxy-6-methylphenyl)-3-hydroxy-5-{2-(methoxyimino)propyl}cyclopent-2-enone] | 5 (Herbicidal ratio of 90% or more (almost completely withered)) | 3 (Herbicidal ratio of 40% or higher and lower than 70%) | 1 (Herbicidal ratio of 5% or higher and lower than 20%) | 5 (Herbicidal ratio of 90% or more (almost completely withered)) | 5 (Herbicidal ratio of 90% or more (almost completely withered)) | 5 (Herbicidal ratio of 90% or more (almost completely withered)) | 5 (Herbicidal ratio of 90% or more (almost completely withered)) | 5 (Herbicidal ratio of 90% or more (almost completely withered)) | 0 (Herbicidal ratio of 5% or lower (almost no effect)) | 0 (Herbicidal ratio of 5% or lower (almost no effect)) | 5 (Herbicidal ratio of 90% or more (almost completely withered)) | 5 (Herbicidal ratio of 90% or more (almost completely withered)) | 5 (Herbicidal ratio of 90% or more (almost completely withered)) | 2 (Herbicidal ratio of 20% or higher and lower than 40%)
CON=C(C)CC1CC(O)=C(c2c(C)cc(-c3ccc(Cl)cc3)cc2OC)C1=O (stereo not shown) [6-077, 2-(4′-chloro-3-methoxy-5-methyl-[1,1′-biphenyl]-4-yl)-3-hydroxy-5-{2-(methoxyimino)propyl}cyclopent-2-enone] | 5 (Herbicidal ratio of 90% or more (almost completely withered)) | 3 (Herbicidal ratio of 40% or higher and lower than 70%) | 3 (Herbicidal ratio of 40% or higher and lower than 70%) | 5 (Herbicidal ratio of 90% or more (almost completely withered)) | 5 (Herbicidal ratio of 90% or more (almost completely withered)) | 5 (Herbicidal ratio of 90% or more (almost completely withered)) | 5 (Herbicidal ratio of 90% or more (almost completely withered)) | 5 (Herbicidal ratio of 90% or more (almost completely withered)) | 4 (Herbicidal ratio of 70% or higher and lower than 90%) | 1 (Herbicidal ratio of 5% or higher and lower than 20%) | 5 (Herbicidal ratio of 90% or more (almost completely withered)) | 5 (Herbicidal ratio of 90% or more (almost completely withered)) | 5 (Herbicidal ratio of 90% or more (almost completely withered)) | 4 (Herbicidal ratio of 70% or higher and lower than 90%)
